The text below walks through data of publication PMC2649998 (Journal of pharmaceutical sciences, 2009).

The format of series [1] is physicochemical.
The format of series [2] is physicochemical. To be noted: 0.3 mM PEO-b-PDLLA, 10% w/w drug, dialysis in ddH2O, 37 °C, pH 7.4.
For series [3], the system named is MCF-7 human breast cancer cells. Briefly: in vitro cytotoxicity, resazurin dye, 72 h. The format is cell-based. To be noted: MCF7, 72 h, read-out: MCF-7 IC50.
The test system of series [4] is PC-3 human prostate cells. The series can be described thus: in vitro cytotoxicity, resazurin dye, 72 h. It counts as cell-based. To be noted: Prostate cell, read-out: PC-3 IC50.
For series [5] the following is noted: cited from earlier work.
The subject of a further series is MCF-7. Particulars: read-out: IC50 for MCF-7; reported by the National Cancer Institute; cited from earlier work.
A further series has as its system PC-3. To be noted: read-out: IC50 for PC-3; reported by the National Cancer Institute; cited from earlier work.
The test system of a further series is dogs. To be noted: in dogs; cited from earlier work.

Take `C=CCNC1=C2C[C@@H](C)C[C@H](OC)[C@H](O)[C@@H](C)/C=C(\C)[C@H](OC(N)=O)[C@@H](OC)/C=C\C=C(/C)C(=O)NC(=CC1=O)C2=O` [17-AAG, 17-allylamino-17-demethoxygeldanamycin]: the “17-AAG : PEO-b-PDLLA” value in series [1] (0.3 mM PEO-b-PDLLA micelle solution) is recorded as 0.47 ± 0.068 mol:mol. This compound also displayed a Loading efficiency in series [1] (17-AAG loaded 1.4% divided by loading attempted 10% w/w) of 14 ± 2.0%. Moreover, the “increase in solubility over 17-AAG alone” value in series [1] (in PEO-b-PDLLA (12:6 kDa) micelles versus ca. 10 μg/mL) is “ca. 150 fold”. Further, the 17-AAG loaded in series [1] (weight 17-AAG solubilized versus total weight of carrier (17-AAG and PEO-b-PDLLA), 0.3 mM PEO-b-PDLLA) is reported as 0.014 ± 0.0020 mg/mg. Moreover, in series [2], the release half-life result is on record as “similar”. Also, the half-inhibitory concentration (IC50) in series [3] was 22 ± 14 nM; in series [4] it was 74 ± 14 nM; in the series on MCF-7, 12.6 nM; with PC-3, 50.1 nM. Also, the aqueous solubility entry in series [5] is “ca. 0.01 mg/mL”. The maximum tolerated dose in the series with dogs is on record as 100–200 mg/m^2/day.
Take `CO[C@H]1/C=C\C=C(/C)C(=O)NC2=CC(=O)C(NCCN(C)C)=C(C[C@@H](C)C[C@H](OC)[C@H](O)[C@@H](C)/C=C(\C)[C@@H]1OC(N)=O)C2=O` [17-DMAG, 17-dimethylaminoethylamino-17-demethoxygeldanamycin]: the maximum tolerated dose in the series on dogs is listed as 8 mg/m^2/day.
